Where a SMILES comes first, the peptide text is derived from it.
Tests used:
Experiment in all cases: Fluorescence polarization peptide competition assay
HLA-DRB1^∗14:02 = HLA-DRB1^∗14:02 (Homo sapiens, UniProt P01903+P01911, A100R/A169T/D57E/F76Y/I96L/K41T/L162R/M171V/P40S/Q125H/Q178H/Q39Y/R42S/S66N/T262R/V115G/W38E/Y61H); conditions: competition with 20 nM TAMRA-HA, 100 nM HLA-DRB1, 20 nM HLA-DM, 100 mM trisodium citrate pH 5.4, 50 mM NaCl, 5 mM EDTA, 37 °C, 24-72 h, two independent experiments in triplicate, read-out: IC50, competitive binding to DRB1^∗14:02
Method: (§1) The fluorescent polarization was measured by PHERAstar microplate reader (BMG LABTECH) after 24 h, 48 h and 72 h incubation at 37 °C. The peptide binding curves were plotted by non-linear regression in Prism 10 (GraphPad Software, version 10.2.0) using a sigmoidal dose-response curve. […] All data were derived from two independent experiments in triplicate.
HLA-DRB1^∗04:01 = biological target: T1, HLA-DRB1^∗04:01 (Homo sapiens, UniProt P01903+P01911, A100K/A169T/F76Y/I96L/K127E/L162R/M171V/N62H/P40V/Q125Y/R42H/S133A/S149N/S66Y/V115G/V209L/W38E); conditions: competition with 20 nM TAMRA-HA, 100 nM HLA-DRB1, 20 nM HLA-DM, 100 mM trisodium citrate pH 5.4, 50 mM NaCl, 5 mM EDTA, 37 °C, 24-72 h, two independent experiments in triplicate, read-out: IC50, competitive binding to DRB1^∗04:01
T1 construct: the extracellular domains of the α-chain and β-chain of HLA-DRB1^∗04:01; Fos/Jun leucine zipper (C); invariant chain (CLIP) peptide, covalently linked; made in house
Method: as §1

HLA-DRB1^∗01:01 = HLA-DRB1^∗01:01 (Homo sapiens, UniProt P01903+P01911, A100R/D57E/F55L/F60I/F76Y/I96L/L162R/M171V/P40L/Q125E/R42F/V115G/Y59C); conditions: competition with 20 nM TAMRA-HA, 100 nM HLA-DRB1, 20 nM HLA-DM, 100 mM trisodium citrate pH 5.4, 50 mM NaCl, 5 mM EDTA, 37 °C, 24-72 h, two independent experiments in triplicate, read-out: IC50, competitive binding to DRB1^∗01:01
Method: as §1
HLA-DRB1^∗04:05 = HLA-DRB1^∗04:05 (Homo sapiens, UniProt P01903+P01911, A100R/A169T/D86S/F76Y/I96L/K127E/L162R/M171V/N62H/P40V/Q125Y/R42H/S133A/S149N/S66Y/V115G/V209L/W38E); conditions: competition with 20 nM TAMRA-HA, 100 nM HLA-DRB1, 20 nM HLA-DM, 100 mM trisodium citrate pH 5.4, 50 mM NaCl, 5 mM EDTA, 37 °C, 24-72 h, two independent experiments in triplicate, read-out: IC50, competitive binding to DRB1^∗04:05
Method: as §1
HLA-DRB1^∗04:04 = HLA-DRB1^∗04:04 (Homo sapiens, UniProt P01903+P01911, A100R/A169T/F76Y/I96L/K127E/L162R/M171V/N62H/P40V/Q125Y/R42H/S133A/S149N/S66Y/V209L/W38E); conditions: competition with 20 nM TAMRA-HA, 100 nM HLA-DRB1, 20 nM HLA-DM, 100 mM trisodium citrate pH 5.4, 50 mM NaCl, 5 mM EDTA, 37 °C, 24-72 h, two independent experiments in triplicate, read-out: IC50, competitive binding to DRB1^∗04:04
Method: as §1

- IC50 (HLA-DRB1^∗14:02): 1310 nM
- IC50 (HLA-DRB1^∗04:01): 1140 nM
- IC50 (HLA-DRB1^∗01:01): 800 nM
- IC50 (HLA-DRB1^∗04:05): 4810 nM
- IC50 (HLA-DRB1^∗04:04): > 300000 nM
SMILES: CC(C)C[C@H](NC(=O)[C@H](CCCNC(N)=O)NC(=O)[C@H](Cc1ccc(O)cc1)NC(=O)[C@H](CCCNC(N)=O)NC(=O)[C@@H](N)CC(=O)O)C(=O)N[C@@H](CC(N)=O)C(=O)N[C@@H](Cc1ccc(O)cc1)C(=O)N[C@@H](CO)C(=O)N[C@@H](CC(C)C)C(=O)N1CCC[C@H]1C(=O)N[C@H](C(=O)NCC(=O)O)[C@@H](C)O [TNC^1014,1016cit] (HELM PEPTIDE1{D.[Cit].Y.[Cit].L.N.Y.S.L.P.T.G}$$$$V2.0)

— PMC12269843, “The molecular basis of T cell receptor recognition of citrullinated tenascin-C presented by HLA-DR4” (The Journal of Biological Chemistry, 2025)
